According to ChEMBL document CHEMBL1201862, “PubChem BioAssay data set” (2004):
Blank lines part the entries; values can stand above or below the molecule they belong to. Activity calls are given as the source filed them.

How the values were obtained:
[1] = molecular target: T1, Estrogen receptor beta (Homo sapiens, UniProt Q92731);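 further: recombinant ER-beta bound to coactivator SRC1 peptide in presence of estradiol agonist; inhibitors block coactivator peptide binding and lower the FRET signal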
[2] = HepG2 cell cytotoxicity, dose response, cytotoxicity control, cherry-picks, set 5 (AID 1053118); type: functional, cell-based
[3] = fibronectin fibrillogenesis inhibitors in fibroblasts, dose response, AH1F cells, Alexa488-fibronectin fluorescence, cherry-pick, set 2 (AID 1117283); type: functional, cell-based
[4] = cells; settings: HEK293
[5] = CTGF mRNA reduction under YAP1 overexpression, dose response, mechanism study for YAP1 pathway inhibitor project, DLD1 cells, RT-qPCR, cherry-pick (AID 1053127); type: functional, cell-based; settings: DLD-1
[6] = YAP1 pathway inhibition via CTGF transcript levels, dose response, cell-based, DLD1 colon cancer, RT-qPCR, cherry-pick (AID 1053122); type: functional; settings: Cancer cell lines
[7] = P. falciparum Dd2 growth inhibitors, dose response, SYBR Green, cherry-picked samples (AID 1159567); type: functional, cell-based
[8] = HepG2 cell cytotoxicity, dose response, cytotoxicity control, cherry-picked samples (AID 1159577); type: functional, cell-based
[9] = molecular target: Ubiquitin carboxyl-terminal hydrolase BAP1 (Homo sapiens, UniProt Q92560); assay: BAP1 deubiquitinase inhibitors, dose response, biochemical (AID 714); type: functional
[10] = A375 melanoma cell viability loss, dose response, counter-screen for MITF inhibitor project, CellTiter-Glo luminescence, dry powder, set 4 (AID 624364); type: functional, cell-based; settings: A-375;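 further: A375 melanoma cells are MITF independent so this is a counter screen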
[11] = A375 melanoma cell cytotoxicity, dose response, counter-screen for MITF inhibitor project, CellTiter-Glo luminescence, dry powder, set 2 (AID 624489); type: functional, cell-based; settings: A-375;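 further: actives are compounds lowering A375 viability meaning general cytotoxicity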
[12] = molecular target: T2, RNA-binding protein pos-1 (Caenorhabditis elegans, UniProt G5EF15); assay: inhibitors of POS-1/mex-3 RNA binding, dose response, biochemical, fluorescence polarization (AID 1964);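 further: purified POS-1 fused to maltose binding protein made in E. coli; potency of compounds blocking POS-1 binding to fluorescent RNA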
T2 sequence (G5EF15 whole entry): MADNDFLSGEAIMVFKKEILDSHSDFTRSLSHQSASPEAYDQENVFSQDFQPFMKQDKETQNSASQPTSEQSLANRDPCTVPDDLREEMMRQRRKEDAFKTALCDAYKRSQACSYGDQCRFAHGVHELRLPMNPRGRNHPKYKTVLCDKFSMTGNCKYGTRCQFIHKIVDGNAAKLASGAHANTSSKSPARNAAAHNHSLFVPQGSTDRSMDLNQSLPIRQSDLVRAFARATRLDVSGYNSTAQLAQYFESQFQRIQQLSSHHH

[13] = molecular target: T3, Bcl-2-like protein 10 (Homo sapiens, UniProt Q9HD36); assay: displacers of TR3 peptide from Bcl-B, primary screen, selectivity assay for Bfl-1 inhibitor project, biochemical, fluorescence polarization, FITC-TR3 peptide (AID 748);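 further: fluorescence polarization from a fluorescein-labelled TR3 peptide binding purified Bcl-B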
T3 sequence (Q9HD36 whole entry): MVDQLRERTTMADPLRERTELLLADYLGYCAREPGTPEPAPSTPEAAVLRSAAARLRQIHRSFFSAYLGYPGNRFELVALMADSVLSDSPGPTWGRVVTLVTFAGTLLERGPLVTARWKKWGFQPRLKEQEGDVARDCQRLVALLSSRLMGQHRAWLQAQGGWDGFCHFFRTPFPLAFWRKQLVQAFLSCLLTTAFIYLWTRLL

[14] = molecular target: T4, Zinc finger protein mex-5 (Caenorhabditis elegans, UniProt Q9XUB2); assay: MEX-5/TCR-2 RNA interaction inhibitors, dose response, biochemical, C. elegans, fluorescence polarization (AID 1960)
T4 sequence (Q9XUB2 whole entry): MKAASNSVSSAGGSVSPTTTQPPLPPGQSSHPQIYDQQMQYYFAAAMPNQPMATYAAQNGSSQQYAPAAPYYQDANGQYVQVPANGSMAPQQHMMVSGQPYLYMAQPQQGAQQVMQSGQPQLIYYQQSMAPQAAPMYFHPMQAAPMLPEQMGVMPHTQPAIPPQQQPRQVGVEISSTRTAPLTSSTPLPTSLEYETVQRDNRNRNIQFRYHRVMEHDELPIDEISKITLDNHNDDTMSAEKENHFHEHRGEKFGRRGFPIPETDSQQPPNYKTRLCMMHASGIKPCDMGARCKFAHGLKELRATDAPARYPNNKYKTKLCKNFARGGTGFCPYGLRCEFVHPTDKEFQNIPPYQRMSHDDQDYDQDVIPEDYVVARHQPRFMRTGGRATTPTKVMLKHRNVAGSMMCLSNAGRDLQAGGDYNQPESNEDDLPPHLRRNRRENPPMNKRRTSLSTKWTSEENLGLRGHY

[15] = molecular target: Large T antigen (Simian virus 40, UniProt P03070); type: functional, Betapolyomavirus macacae;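 further: Confirmatory-stage PubChem screen for compounds that inhibit SV40 T antigen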
[16] = molecular target: T1, Estrogen receptor beta; assay: ERβ–SRC-3 coactivator interaction inhibitors, confirmation, orthogonal assay, biochemical, ELISA, streptavidin-HRP readout (AID 1060)
[17] = molecular target: Genome polyprotein (dengue virus type 2, UniProt P29990); assay: Dengue-2 NS5 methyltransferase inhibitors, primary screen, biochemical, confirmation dose response (AID 588689); type: functional
[18] = molecular target: T5, Polyadenylate-binding protein 1 (Homo sapiens, UniProt P11940); assay: PABP1 MLLE–PAM2 interaction inhibitors, dose response, miRNA deadenylation inhibitor project, biochemical, fluorescence polarization, Cy5-PAM2 peptide, secondary (AID 602260); type: functional; settings: read-out: IC50_Mean
[19] = molecular target: T5, Polyadenylate-binding protein 1; assay: PABP1 MLLE–PAM2 binding inhibitor potency, dose response, biochemical, fluorescence polarization, FITC-PAM2 peptide (AID 602259); type: functional; settings: read-out: IC50_Mean
[20] = molecular target: Glutathione-S-transferase (Schistosoma japonicum, UniProt Q26513); assay: biotin-GST/anti-GST TR-FRET signal inhibitors, dose response, artefact control for Vif-APOBEC3G degradation inhibitor project, biochemical (AID 1117362); type: functional
[21] = molecular target: Kallikrein-7 (Homo sapiens, UniProt P49862); assay: Fluorescence Intensity-based biochemical primary high throughput dose response assay to identify activators of kallikrein-7 (K7) zymogen.
[22] = PAX2 cell-based inhibition, dose response, selectivity assay for PAX8 inhibitor project, plate reader, dry powder samples (AID 743048); type: functional;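 further: HEK293 cells carrying a WT1 promoter luciferase reporter driven by expressed Pax2; potency is for inhibition of Pax2 driven reporter signal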
[23] = cytotoxicity in COV362 ovarian cancer cells, dose response, cytotoxicity control for PAX8 inhibitor project, cell-based, plate reader, dry powder, SA12 (AID 743144); type: functional
[24] = NIH:OVCAR-3 ovarian cancer cell cytotoxicity, dose response, PAX8 inhibitor project, plate reader, dry powder samples (AID 743044); type: functional, cell-based
[25] = PAX5 activity inhibitors, dose response, selectivity assay for PAX8 inhibitor project, cell-based, plate reader, dry powder samples (AID 743047); type: functional;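 further: HEK293 cells carrying a Pax5 driven CD19 promoter luciferase reporter; potency of inhibitors that lower reporter luminescence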
[26] = IGROV1 ovarian cancer cell cytotoxicity, dose response, PAX8 inhibitor project, plate reader, dry powder samples (AID 743043); type: functional, cell-based; settings: IGROV-1
[27] = cytotoxicity in OVCAR4 cells, dose response, cytotoxicity control for PAX8 inhibitor project, cell-based, plate reader, dry powder, SA11 (AID 743150); type: functional; settings: OVCAR-4
[28] = cytotoxicity in COV434 cells, dose response, cytotoxicity control for PAX8 inhibitor project, cell-based, plate reader, dry powder, SA7 (AID 743145); type: functional
[29] = cytotoxicity in OV-90 ovarian cancer cells, dose response, PAX8 inhibitor project, cell-based, plate reader, dry powder, SA8 (AID 743149); type: functional
[30] = non-specific cell cytotoxicity, dose response, cytotoxicity control for PAX8 inhibitor project, plate reader, dry powder samples (AID 743021); type: functional, cell-based
[31] = cytotoxicity dependent on PAX8, dose response, cell-based, plate reader, dry powder (AID 743049); type: functional

T5 sequence (P11940 whole entry): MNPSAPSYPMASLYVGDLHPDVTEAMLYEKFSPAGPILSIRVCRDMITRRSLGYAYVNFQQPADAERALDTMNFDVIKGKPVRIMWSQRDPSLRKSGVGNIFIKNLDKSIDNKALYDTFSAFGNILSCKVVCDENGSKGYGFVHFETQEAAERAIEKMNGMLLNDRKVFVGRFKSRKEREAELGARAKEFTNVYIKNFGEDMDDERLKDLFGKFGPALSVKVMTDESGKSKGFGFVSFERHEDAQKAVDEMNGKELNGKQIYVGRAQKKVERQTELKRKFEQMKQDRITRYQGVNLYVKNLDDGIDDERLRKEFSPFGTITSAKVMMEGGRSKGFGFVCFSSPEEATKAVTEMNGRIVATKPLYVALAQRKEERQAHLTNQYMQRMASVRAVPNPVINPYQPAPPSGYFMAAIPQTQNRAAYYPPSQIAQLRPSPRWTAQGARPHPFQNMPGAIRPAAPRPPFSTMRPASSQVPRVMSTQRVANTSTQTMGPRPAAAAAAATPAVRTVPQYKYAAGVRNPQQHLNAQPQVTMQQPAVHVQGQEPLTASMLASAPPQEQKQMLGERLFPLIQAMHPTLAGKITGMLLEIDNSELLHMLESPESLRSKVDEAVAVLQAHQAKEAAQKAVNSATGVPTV
T1 sequence (Q92731 whole entry): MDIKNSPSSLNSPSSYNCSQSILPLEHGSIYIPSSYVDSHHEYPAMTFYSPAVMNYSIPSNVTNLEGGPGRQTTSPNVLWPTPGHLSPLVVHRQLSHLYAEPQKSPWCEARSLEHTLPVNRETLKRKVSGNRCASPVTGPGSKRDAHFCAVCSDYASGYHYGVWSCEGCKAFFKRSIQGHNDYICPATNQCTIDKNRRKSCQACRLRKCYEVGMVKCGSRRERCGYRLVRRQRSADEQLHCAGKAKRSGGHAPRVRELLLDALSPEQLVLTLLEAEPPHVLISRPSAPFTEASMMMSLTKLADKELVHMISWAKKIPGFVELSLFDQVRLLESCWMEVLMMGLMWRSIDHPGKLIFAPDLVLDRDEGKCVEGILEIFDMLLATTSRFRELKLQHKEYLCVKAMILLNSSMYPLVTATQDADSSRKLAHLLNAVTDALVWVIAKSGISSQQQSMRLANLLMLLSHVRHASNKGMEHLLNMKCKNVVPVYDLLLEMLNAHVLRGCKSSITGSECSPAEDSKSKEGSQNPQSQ
Chain of Large T antigen (P03070 whole entry): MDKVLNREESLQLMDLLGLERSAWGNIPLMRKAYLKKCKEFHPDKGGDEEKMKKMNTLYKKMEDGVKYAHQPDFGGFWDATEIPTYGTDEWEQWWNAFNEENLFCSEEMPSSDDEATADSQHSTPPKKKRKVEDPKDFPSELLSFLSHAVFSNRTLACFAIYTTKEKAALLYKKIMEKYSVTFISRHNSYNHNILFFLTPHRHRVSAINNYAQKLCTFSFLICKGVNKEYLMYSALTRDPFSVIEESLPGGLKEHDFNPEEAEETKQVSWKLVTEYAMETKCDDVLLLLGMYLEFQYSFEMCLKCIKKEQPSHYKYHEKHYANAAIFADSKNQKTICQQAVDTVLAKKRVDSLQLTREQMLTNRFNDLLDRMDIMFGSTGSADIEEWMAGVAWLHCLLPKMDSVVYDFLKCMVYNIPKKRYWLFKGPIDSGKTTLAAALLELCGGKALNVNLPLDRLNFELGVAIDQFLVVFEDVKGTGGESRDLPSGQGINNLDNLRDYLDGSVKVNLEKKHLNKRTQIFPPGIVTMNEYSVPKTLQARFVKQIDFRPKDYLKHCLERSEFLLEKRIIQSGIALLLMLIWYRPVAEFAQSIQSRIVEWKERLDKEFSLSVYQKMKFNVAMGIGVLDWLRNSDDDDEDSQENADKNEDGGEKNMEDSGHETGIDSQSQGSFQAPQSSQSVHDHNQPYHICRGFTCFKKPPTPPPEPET
Chain of Glutathione-S-transferase (Q26513 whole entry): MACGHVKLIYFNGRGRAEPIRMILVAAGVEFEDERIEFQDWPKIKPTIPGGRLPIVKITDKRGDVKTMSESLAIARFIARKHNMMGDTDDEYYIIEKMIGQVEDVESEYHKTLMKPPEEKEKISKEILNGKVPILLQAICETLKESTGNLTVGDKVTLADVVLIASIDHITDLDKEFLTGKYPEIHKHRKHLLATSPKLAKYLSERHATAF
Chain of Ubiquitin carboxyl-terminal hydrolase BAP1 (Q92560 whole entry): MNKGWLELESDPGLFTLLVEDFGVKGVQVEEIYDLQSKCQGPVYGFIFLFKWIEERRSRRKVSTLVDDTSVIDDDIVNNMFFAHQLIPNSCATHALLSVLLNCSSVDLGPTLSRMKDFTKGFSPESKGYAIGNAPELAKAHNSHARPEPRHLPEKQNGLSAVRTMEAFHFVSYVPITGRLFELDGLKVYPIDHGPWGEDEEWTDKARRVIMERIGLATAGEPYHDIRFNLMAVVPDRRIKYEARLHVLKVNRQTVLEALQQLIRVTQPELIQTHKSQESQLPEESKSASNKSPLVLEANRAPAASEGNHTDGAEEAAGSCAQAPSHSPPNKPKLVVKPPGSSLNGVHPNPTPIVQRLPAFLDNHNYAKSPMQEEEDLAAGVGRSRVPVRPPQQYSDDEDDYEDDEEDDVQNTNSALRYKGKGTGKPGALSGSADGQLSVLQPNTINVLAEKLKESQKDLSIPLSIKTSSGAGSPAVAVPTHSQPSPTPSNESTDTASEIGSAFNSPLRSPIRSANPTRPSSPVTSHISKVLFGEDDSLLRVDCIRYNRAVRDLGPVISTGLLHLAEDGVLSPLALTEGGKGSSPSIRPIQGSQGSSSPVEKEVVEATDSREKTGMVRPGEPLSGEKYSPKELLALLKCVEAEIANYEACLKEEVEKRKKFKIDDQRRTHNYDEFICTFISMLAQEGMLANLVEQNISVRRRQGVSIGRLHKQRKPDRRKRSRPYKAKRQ
Chain of Kallikrein-7 (P49862 whole entry): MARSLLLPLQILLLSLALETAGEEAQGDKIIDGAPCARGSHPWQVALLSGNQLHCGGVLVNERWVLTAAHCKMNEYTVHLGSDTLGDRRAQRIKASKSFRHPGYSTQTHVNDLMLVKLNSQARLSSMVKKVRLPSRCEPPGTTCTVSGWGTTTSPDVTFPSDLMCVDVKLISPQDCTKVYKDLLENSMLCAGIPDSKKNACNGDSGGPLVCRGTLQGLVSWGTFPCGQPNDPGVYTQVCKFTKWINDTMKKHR
Chain of Genome polyprotein (P29990 2492-3391 limits assumed): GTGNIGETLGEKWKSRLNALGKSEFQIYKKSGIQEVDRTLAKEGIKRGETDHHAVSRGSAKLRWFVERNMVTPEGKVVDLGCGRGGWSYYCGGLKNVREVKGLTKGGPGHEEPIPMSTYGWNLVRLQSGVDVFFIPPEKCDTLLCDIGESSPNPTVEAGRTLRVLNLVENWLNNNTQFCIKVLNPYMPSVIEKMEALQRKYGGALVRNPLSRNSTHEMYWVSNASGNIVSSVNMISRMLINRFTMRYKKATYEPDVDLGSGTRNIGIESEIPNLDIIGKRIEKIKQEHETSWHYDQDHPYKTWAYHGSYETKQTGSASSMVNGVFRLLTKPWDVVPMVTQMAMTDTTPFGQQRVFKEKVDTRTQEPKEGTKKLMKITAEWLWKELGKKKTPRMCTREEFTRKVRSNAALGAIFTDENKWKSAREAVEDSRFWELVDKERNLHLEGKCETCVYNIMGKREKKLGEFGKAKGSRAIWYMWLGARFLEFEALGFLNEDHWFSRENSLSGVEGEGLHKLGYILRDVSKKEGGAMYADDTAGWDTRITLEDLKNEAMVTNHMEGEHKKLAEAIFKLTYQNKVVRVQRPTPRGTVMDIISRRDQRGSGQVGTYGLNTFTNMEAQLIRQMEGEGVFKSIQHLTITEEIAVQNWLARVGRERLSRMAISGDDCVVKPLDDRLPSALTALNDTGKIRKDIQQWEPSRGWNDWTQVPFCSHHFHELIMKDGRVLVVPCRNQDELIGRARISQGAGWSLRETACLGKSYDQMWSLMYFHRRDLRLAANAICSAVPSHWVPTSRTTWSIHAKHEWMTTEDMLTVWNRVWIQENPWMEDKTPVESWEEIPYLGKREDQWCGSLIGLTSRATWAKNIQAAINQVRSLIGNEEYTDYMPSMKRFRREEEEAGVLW

IC50 [1]: > 50 µM (not active)
SMILES: CC(C)COC(=O)c1nnsc1NC(=O)Nc1ccccc1

SMILES: COc1ccc([N+](=O)[O-])cc1NS(=O)(=O)c1ccc(C(=O)N2CCCC2)cc1
AC50 [2]: > 52 µM (inactive)
AC50 [3]: 51 µM (active)

SMILES: Fc1ccc2c(c1)[nH]c(=S)n2CCOc1ccccc1
AC50 [4]: > 52 µM (inactive)

SMILES: C[C@@H]1CN([C@H](C)CO)C(=O)c2ccccc2-c2ccccc2CO[C@@H]1CN(C)Cc1ccc(Oc2ccccc2)cc1
AC50 [5]: 7.84 µM (active)
AC50 [6]: 6.79 µM (active)
AC50 [7]: 6.67 µM (active)
AC50 [8]: 19.8 µM (active)

IC50 [9]: > 50 µM (not active)
SMILES: Nc1nn(S(=O)(=O)c2cccc3nsnc23)cc1-c1ccc(Br)cc1

SMILES: CCN1CCN(C2=C(NS(=O)(=O)c3ccc(Br)s3)C(=O)c3ccccc3C2=O)CC1
AC50 [10]: > 70 µM (inactive)
AC50 [11]: > 70 µM (inactive)

SMILES: O=c1oc2c3c4c(cc2s1)CCCN4CCC3
EC50 [12]: 28.1 µM (active)
IC50 [13]: 10.4 µM (active)
EC50 [14]: 24.1 µM (inconclusive)
IC50 [15]: 17.9 µM (active)
IC50 [16]: > 50 µM (not active)
IC50 [17]: 86.7 µM (active)
IC50 [18]: > 66 µM (inactive)
IC50 [19]: 48 µM (inactive)
IC50 [20]: 66.2 µM (active)

EC50 [21]: 13.1 µM (inactive)
SMILES: COc1ccc(NC(=O)c2cc(-c3ccco3)on2)cc1OC

SMILES: CN(C)CCN(C(=O)/C=C/c1cccs1)c1nc2c(F)cc(F)cc2s1
AC50 [22]: > 100 µM (inactive)
AC50 [23]: 21.2 µM (active)
AC50 [24]: 29.1 µM (active)
AC50 [25]: > 100 µM (inactive)
AC50 [26]: 34.3 µM (active)
AC50 [27]: 31.2 µM (active)
AC50 [28]: 44.9 µM (active)
AC50 [29]: 32.8 µM (active)
AC50 [30]: 11.6 µM (active)
AC50 [31]: 19.4 µM (active)
